We go through seven compounds from patent US8202834B2, “Fat regulation” (FibroGen, Inc., priority 2002, dated 2012).

Test [1] in a line: Diet-induced obesity model, high-fat diet, 28 days. Format: in vivo, C57BL/6J mice. The conditions noted are these: 75 mg/kg/day oral gavage, vs high-fat vehicle, p<0.05, FIG. 6A. As for the experimental part: The effect of the present compounds and methods on fat regulation, e.g., fat uptake and storage, etc., and on regulation of body weight was analyzed as follows. C57Bl/6J mice fed a high-fat diet develop severe obesity, hyperglycemia, and hyperinsulinemia, and are a model of diet-induced obesity, Type 2 diabetes, and impaired glucose tolerance. Forty male C57BL/6J mice obtained from The Jackson Laboratory (Bar Harbor Me.) were divided into the following experimental groups: Group 1: vehicle control animals fed standard mouse chow (n=10); Group 2: vehicle control animals fed high-fat mouse chow (45% fat from Research Diets) (n=10); Group 3: animals fed high-fat mouse chow and administered 75 mg/kg/day compound E by oral gavage (n=10); Group 4: animals fed high-fat mouse chow and administered 75 mg/kg/day compound A by oral gavage (n=10). The feeding regimen was continued for 28 days with weekly measurement of body weight. Animals were then sacrificed and their organs and fat pads were harvested and weighed.

Test [2] concerns GluT-1. Nature of the test: GluT-1 protein levels in H9c2 cells, Western blot. Format: cell-based, rat. The conditions noted are these: H9c2 cells, 5, 10 and 20 μM, 16 hours; FIG. 9A. The method, then: (§1) As the compounds and methods of the invention regulate fat metabolism, which is tightly coordinated with glucose regulation, the effect of compounds and methods on glucose uptake and metabolism was analyzed. Human SSC-25 (squamous cell carcinoma) or rat H9c2 (ventricular cardiomyocyte) cells were grown to confluence in 100 mm culture dishes at 37° C., 10% CO2 in DMEM with 10% fetal calf serum. Cells were then washed twice with PBS and incubated with vehicle control, compound D (10 and 25 μM), or compound C (5, 10, and 20 μM) for 16 hours. Plates were placed on ice, culture supernatant was removed, and lysis buffer-1 (LB-1: 10 mM Tris pH 7.4, 1 mM EDTA, 150 mM sodium chloride, 0.5% IGEPAL) was added. Cells were harvested by scraping, incubated for 15 minutes on ice, and then centrifuged at 3,000×g for 5 minutes at 4° C. The supernatant, which represents the cytosolic fraction, was collected and cytosolic proteins were separated under reducing conditions using SDS-polyacrylamide gel electrophoresis (SDS-PAGE) with equal amounts of protein loaded per lane.
(§2) SDS-PAGE was conducted at 150 V for 2 hours, after which the proteins were transferred to a PVDF membrane at 400 mA for 1.5 hours at 4° C. […]
(In general: A western blot detects proteins with antibodies after separation by electrophoresis.)

Test [3] has as its system HIF-1α. As to the kind of experiment: HIFα stabilization in cells, nuclear fraction Western blot. It counts as cell-based, human. The following applies: various cell types, overnight incubation; FIG. 8A. The text has this:
Compounds of the present invention for use in the present methods stabilize HIFα, inhibit HIF hydroxylase activity and/or HIFα hydroxylation, etc. Thus, compounds can be identified, e.g., by their ability to stabilize HIFα. Stabilization of HIFα using compounds and methods of the present invention was examined as follows. Human cells derived from adenovirus-transformed fetal kidney epithelium (293A), cervical epithelial adenocarcinoma (HeLa), hepatocellular carcinoma (Hep3B), squamous carcinoma (SSC-25), and lung fibroblast (HLF) tissues (see, e.g., American Type Culture Collection, Manassas Va.; and Qbiogene, Carlsbad Calif.) were separately seeded into 100 mm culture dishes and grown at 37° C., 20% O2, 5% CO2 in media as follows: HeLa cells in Dulbecco's Modification of Eagle's Medium (DMEM), 2% fetal bovine serum (FBS); HLF cells in DMEM, 10% FBS; 293A cells in DMEM, 5% FBS; and Hep3B cells in Minimal Essential Medium (MEM), Earle's BSS (Mediatech Inc., Herndon Va.), 2 mM L-glutamine, 0.1 mM non-essential amino acids, 1 mM sodium pyruvate, 10% FBS. When cell layers reached confluence, the media was replaced with OPTI-MEM media (Invitrogen Life Technologies, Carlsbad Calif.) and cell layers were incubated for approximately 24 hours in 20% O2, 5% CO2 at 37° C. […]

The subject of a further test is DEC1/Stra13. Nature of the test: DEC1/Stra13 expression in tissues after 4 days of oral dosing. It counts as in vivo, mouse. The following applies: adipose, kidney, liver and muscle; oral gavage once per day for 4 days, 4 h after final dose; FIG. 3B. The method, then:
(§3) To further investigate the effect of the methods and compounds of the present invention on expression of adipogenic factors, twelve Swiss Webster male mice (30-32 g) obtained from Simonsen, Inc. were treated by oral gavage once per day for 4 days with 4 ml/kg volume of either 0.5% CMC (0 mg/kg/day), 25 mg/ml compound D in 0.5% CMC (100 mg/kg/day), or 7.5 mg/ml and 25 mg/ml of compound B in 0.5% CMC (30 and 100 mg/kg/day, respectively). Four hours after the final dose, animals were anesthetized, sacrificed, and approximately 150 mg of adipose, heart, kidney, liver, lung, and muscle were isolated and stored in RNALATER solution (Ambion) at −20° C. RNA isolation and gene expression analysis was performed as described in Example 3 above.

Test [4] has as its system GluT-1. Nature of the test: GluT-1 protein levels in SCC-25 cells, Western blot. The following applies: 10 and 25 μM, 16 hours, FIG. 9A. It counts as cell-based, human. As for the experimental part:
as §1, §2

In a further test the test system is PPAR-γ. As to the kind of experiment: PPAR-γ expression in tissue after 4 days of oral dosing. Format: in vivo, mouse. The following applies: cardiac tissue; oral gavage once per day for 4 days; FIG. 3C. The method, then: as §3
Test [5] relates to HIF-1α. Nature of the test: HIF-1α in nuclear fractions, TRANSAM HIF-1 ELISA. Format: cell-based, human. The conditions noted are these: 293A and Hep3B cells, vs vehicle; FIG. 8B. The text has this: Compounds of the present invention for use in the present methods stabilize HIFα, inhibit HIF hydroxylase activity and/or HIFα hydroxylation, etc. Thus, compounds can be identified, e.g., by their ability to stabilize HIFα. Stabilization of HIFα using compounds and methods of the present invention was examined as follows. Human cells derived from adenovirus-transformed fetal kidney epithelium (293A), cervical epithelial adenocarcinoma (HeLa), hepatocellular carcinoma (Hep3B), squamous carcinoma (SSC-25), and lung fibroblast (HLF) tissues (see, e.g., American Type Culture Collection, Manassas Va.; and Qbiogene, Carlsbad Calif.) were separately seeded into 100 mm culture dishes and grown at 37° C., 20% O2, 5% CO2 in media as follows: HeLa cells in Dulbecco's Modification of Eagle's Medium (DMEM), 2% fetal bovine serum (FBS); HLF cells in DMEM, 10% FBS; 293A cells in DMEM, 5% FBS; and Hep3B cells in Minimal Essential Medium (MEM), Earle's BSS (Mediatech Inc., Herndon Va.), 2 mM L-glutamine, 0.1 mM non-essential amino acids, 1 mM sodium pyruvate, 10% FBS. When cell layers reached confluence, the media was replaced with OPTI-MEM media (Invitrogen Life Technologies, Carlsbad Calif.) and cell layers were incubated for approximately 24 hours in 20% O2, 5% CO2 at 37° C. A compound of the invention (compound B, D, F, G, or H) or vehicle control (0.5 to 1% DMSO) was then added to existing medium, and incubation was continued overnight.
Alternatively, nuclear fractions were prepared using a nuclear extract kit (Active Motif, Carlsbad Calif.) and were analyzed for HIF-1α using a TRANSAM HIF-1 ELISA kit (Active Motif) according to the manufacturer's instructions.
On the technique in general: In an ELISA, binding on a coated surface is turned into a signal by an enzyme label.

For `O=C(O)CNC(=O)c1nc2cc(Cl)ccc2cc1O` [compound A, [(7-Chloro-3-hydroxy-quinoline-2-carbonyl)-amino]-acetic acid], the weight gain entry in test [1] is “significantly less weight gain”.

On to `O=C(O)CNC(=O)c1ncc2cc(Oc3ccccc3)ccc2c1O` [compound C, [(4-Hydroxy-7-phenoxy-isoquinoline-3-carbonyl)-amino]-acetic acid], for which, in the test on GluT-1 [2], the “protein levels of GluT-1” value is reported as “increased protein levels of GluT-1”.

Take `O=C(O)c1c[nH]c2c(ccc3cccnc32)c1=O` [compound D, 4-Oxo-1,4-dihydro-[1,10]phenanthroline-3-carboxylic acid]: the HIFα stabilization entry with HIF-1α [3] is given as “stabilized HIFα”. The DEC1/Stra13 expression result with DEC1/Stra13 is “increased DEC1/Stra13 expression”. Besides, the “protein levels of GluT-1” value in the test on GluT-1 [4] is recorded as “increased protein levels of GluT-1”. In addition, in the test on PPAR-γ, the PPAR-γ expression result is “decreased PPAR-γ expression”.

Regarding `COc1ccc2c(O)c(C(=O)NCC(=O)O)nc(Cl)c2c1` [compound E, [(1-Chloro-4-hydroxy-7-methoxy-isoquinoline-3-carbonyl)-amino]-acetic acid], the weight gain result in test [1] was “significantly less weight gain”.

`CC(C)Oc1ccc2nc(C(=O)NCC(=O)O)c(O)cc2c1` [compound F, [(3-Hydroxy-6-isopropoxy-quinoline-2-carbonyl)-amino]-acetic acid]: the “stabilization and accumulation of HIFα” value in the test with HIF-1α [5] was “stabilization and accumulation of HIFα”.

On to `O=C(O)CNC(=O)c1ncccc1O` [compound G, [(3-Hydroxy-pyridine-2-carbonyl)-amino]-acetic acid], for which the “stabilization and accumulation of HIFα” value in the test with HIF-1α [5] is “stabilization and accumulation of HIFα”.

On to `COC(=O)CNC(=O)c1nc(Cl)c2cc(OCc3ccccc3)ccc2c1O` [compound H, [(7-Benzyloxy-1-chloro-4-hydroxy-isoquinoline-3-carbonyl)-amino]-acetic acid methyl ester], for which the “stabilization and accumulation of HIFα” value in the test with HIF-1α [5] is “stabilization and accumulation of HIFα”.
